Laboratory results published in patent US9096615B2, “Bridged bicyclic amino thiazine dioxide compounds as inhibitors of beta-secretase and methods of use thereof” (AMGEN INC., priority 2013, dated 2015).
pIC50: −log10 of the molar value.

Assays:
Cathepsin D (Cat D) = biological target: T1, Cathepsin D (Cat D) (Homo sapiens, UniProt P07339); assay: In vitro enzymatic Cathepsin D (Cat D) FRET assay; type: biochemical; settings: average IC50; first procedure; read-out: CatD IC50
T1 construct: made in house; host or cells: CHO cells
Procedure, shortened: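 Fluorescence (500 nm excitation, 580 nm emission) was measured after Tris quench of a 1 h cleavage of 20 nM quenched peptide substrate. Before that, 9 nM CHO-expressed human Cat D sat with compound for 1 h at pH 3.5 (0.05 M citrate, 5 mM CHAPS, 10% DMSO final).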

[1] = test system: Aβ40 in conditioned medium of cells stably expressing Amyloid Precursor Protein (APP); assay: In vitro BACE cell-based assay (HEK cell assay, Aβ40 sandwich ELISA); settings: Homo sapiens, HEK293; average IC50; read-out: BACE1 cell assay IC50
Procedure, shortened: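 IC50 was derived from percent-of-control Aβ40 against concentration, with Aβ40 quantified by time-resolved fluorescence ELISA (pAb40/6E10-biotin, 4 °C incubations). Supernatants were sampled after 24 h of compound exposure (10 points, starting 100 or 10 μM, 0.1% DMSO) of cells stably expressing APP.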

BACE1 = BACE1 (Homo sapiens, UniProt P56817); assay: In vitro enzymatic BACE FRET assay; type: biochemical; settings: average IC50; read-out: BACE1 Enzyme assay IC50
Procedure, shortened: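 Fluorescence (excitation 488 nm, […]) from cleavage of quenched peptide substrate (50 nM), reaction run 1 h after 1 h enzyme–inhibitor pre-incubation, then neutralised with Tris. Conditions: 0.2 nM enzyme, pH 4.2 acetate 0.05 M, 10% DMSO final, 100 uM genapol.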

T1 sequence (P07339 65-412, species assumed): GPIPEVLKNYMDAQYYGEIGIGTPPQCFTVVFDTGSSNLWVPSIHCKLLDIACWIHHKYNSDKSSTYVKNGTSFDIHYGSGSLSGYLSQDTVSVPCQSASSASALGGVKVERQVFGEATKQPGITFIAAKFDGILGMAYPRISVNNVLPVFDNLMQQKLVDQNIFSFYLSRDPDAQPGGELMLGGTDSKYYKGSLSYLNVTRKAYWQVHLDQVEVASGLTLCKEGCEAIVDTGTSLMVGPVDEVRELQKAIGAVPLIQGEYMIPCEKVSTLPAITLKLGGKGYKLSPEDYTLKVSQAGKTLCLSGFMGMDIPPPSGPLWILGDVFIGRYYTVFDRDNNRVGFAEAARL
BACE1, sequence (P56817 46-501, species assumed): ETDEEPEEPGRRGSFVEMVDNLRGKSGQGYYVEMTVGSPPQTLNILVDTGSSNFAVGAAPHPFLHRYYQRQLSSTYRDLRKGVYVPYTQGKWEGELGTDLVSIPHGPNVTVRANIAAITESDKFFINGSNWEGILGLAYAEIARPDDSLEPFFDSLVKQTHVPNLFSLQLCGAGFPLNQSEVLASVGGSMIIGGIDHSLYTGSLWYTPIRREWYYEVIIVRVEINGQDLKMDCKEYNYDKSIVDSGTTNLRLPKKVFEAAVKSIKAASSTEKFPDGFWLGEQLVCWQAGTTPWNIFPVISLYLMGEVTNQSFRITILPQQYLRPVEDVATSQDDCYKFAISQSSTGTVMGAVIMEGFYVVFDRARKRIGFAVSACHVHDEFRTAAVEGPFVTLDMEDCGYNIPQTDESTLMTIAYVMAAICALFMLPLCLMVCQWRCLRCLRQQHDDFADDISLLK

Structure (SMILES) | pIC50 (Cathepsin D (Cat D)) | pIC50 [1] | pIC50 (BACE1)
COc1cnc2c(Nc3ccc(F)c([C@@]4(C)N=C(N)[C@]5(C)CC[C@H]4S5(=O)=O)c3)nccc2n1 [Example 81, N-(3-((1R,2R,5S)-4-amino-2,5-dimethyl-8,8-dioxido-8-thia-3-azabicyclo[3.2.1]oct-3-en-2-yl)-4-fluorophenyl)-2-methoxypyrido[3,4-b]pyrazin-5-amine] | < 3.46 | 7.21 | 6.65
C[C@]1(c2cc(Nc3nccc4nc(C(F)(F)F)cnc34)ccc2F)N=C(N)[C@@]2(C)CC[C@@H]1S2(=O)=O [Example 86, N-(3-((1S,2R,5R)-4-amino-2,5-dimethyl-8,8-dioxido-8-thia-3-azabicyclo[3.2.1]oct-3-en-2-yl)-4-fluorophenyl)-2-(trifluoromethyl)pyrido[3,4-b]pyrazin-5-amine] | < 4.35 | 7.17 | 7.64
C[C@]12CC[C@H]([C@@](C)(c3cc(Nc4nccc5nc(C(F)(F)F)cnc45)ccc3F)N=C1N)S2(=O)=O [Example 87, N-(3-((1R,2R,5S)-4-amino-2,5-dimethyl-8,8-dioxido-8-thia-3-azabicyclo[3.2.1]oct-3-en-2-yl)-4-fluorophenyl)-2-(trifluoromethyl)pyrido[3,4-b]pyrazin-5-amine] | < 4.35 | 6.50 | 7.08
COCc1ccc(C(=O)Nc2ccc(F)c([C@@]3(C)N=C(N)[C@@]4(C)CC[C@@H]3S4(=O)=O)c2)nc1 [Example 90, N-(3-((1S,2R,5R)-4-amino-2,5-dimethyl-8,8-dioxido-8-thia-3-azabicyclo[3.2.1]oct-3-en-2-yl)-4-fluorophenyl)-5-(methoxymethyl)-2-pyridinecarboxamide] | 2.47 | 7.70 | 7.24
COCc1ccc(C(=O)Nc2ccc(F)c([C@@]3(C)N=C(N)[C@]4(C)CC[C@H]3S4(=O)=O)c2)nc1 [Example 91, N-(3-((1R,2R,5S)-4-amino-2,5-dimethyl-8,8-dioxido-8-thia-3-azabicyclo[3.2.1]oct-3-en-2-yl)-4-fluorophenyl)-5-(methoxymethyl)-2-pyridinecarboxamide] | 2.49 | 7.34 | 6.59
Cc1cc(C(F)(F)F)cnc1C(=O)Nc1ccc(F)c([C@@]2(C)N=C(N)[C@]3(CF)CC[C@H]2S3(=O)=O)c1 [Example 93, N-(3-((1R,2R,5S)-4-amino-5-(fluoromethyl)-2-methyl-8,8-dioxido-8-thia-3-azabicyclo[3.2.1]oct-3-en-2-yl)-4-fluorophenyl)-3-methyl-5-(trifluoromethyl)-2-pyridinecarboxamide] | 2.80 | 7.46 | 7.40
CC#CCOc1cnc(C(=O)Nc2ccc(F)c([C@@]3(C)N=C(N)[C@@]4(CF)CC[C@@H]3S4(=O)=O)c2)cn1 [Example 94, N-(3-((1S,2R,5R)-4-amino-5-(fluoromethyl)-2-methyl-8,8-dioxido-8-thia-3-azabicyclo[3.2.1]oct-3-en-2-yl)-4-fluorophenyl)-5-(2-butyn-1-yloxy)-2-pyrazinecarboxamide] | 3.59 | 9.70 | 9.30
CC#CCOc1cnc(C(=O)Nc2ccc(F)c([C@@]3(C)N=C(N)[C@]4(CF)CC[C@H]3S4(=O)=O)c2)cn1 [Example 95, N-(3-((1R,2R,5S)-4-amino-5-(fluoromethyl)-2-methyl-8,8-dioxido-8-thia-3-azabicyclo[3.2.1]oct-3-en-2-yl)-4-fluorophenyl)-5-(2-butyn-1-yloxy)-2-pyrazinecarboxamide] | 3.22 | 8.52 | 8.15
COc1cnc2c(Nc3ccc(F)c([C@@]4(C)N=C(N)[C@@]5(CF)CC[C@@H]4S5(=O)=O)c3)ncc(F)c2c1 [Example 99, N-(3-((1S,2R,5R)-4-amino-5-(fluoromethyl)-2-methyl-8,8-dioxido-8-thia-3-azabicyclo[3.2.1]oct-3-en-2-yl)-4-fluorophenyl)-5-fluoro-3-methoxy-1,7-naphthyridin-8-amine] | 3.50 | 7.55 | 8.22
